Measured values reported in ChEMBL document CHEMBL1133283, “Arylsulfonyl-N,N-diethyl-dithiocarbamates: a novel class of antitumor agents” (Bioorg Med Chem Lett, 2000).

Tests used:
Assay type in all cases: functional
Conditions in all cases: Homo sapiens
HCT-116 = test: In vitro growth inhibition of compound was determined against HCT116 cell lines of colon cancer
OVCAR-4 = test: In vitro growth inhibition of compound was determined against OVCAR-4 cell lines of Ovarian cancer
HCT-15 = test: In vitro growth inhibition of compound was determined against HCT-15 cell lines of colon cancer
SNB-75 = test: In vitro growth inhibition of compound was determined against SNB-75 cell lines of CNS cancer
K562 = test: In vitro growth inhibition of compound was determined against K-562 cell lines of Leukemia
MOLT-4 = test: In vitro growth inhibition of compound was determined against MOLT-4 cell lines of Leukemia
SF-539 = test: In vitro growth inhibition of compound was determined against SF-539 cell lines of CNS cancer
ACHN = test: In vitro growth inhibition of compound was determined against ACHN cell lines of Renal cancer
SW-620 = test: In vitro growth inhibition of compound was determined against SW-620 cell lines of colon cancer
HOP-62 = test: In vitro growth inhibition of compound was determined against HOP-62 cell lines of non-small cell lung cancer
A549 = test: In vitro growth inhibition of compound was determined against A549/ATCC cell lines of non-small cell lung cancer
UACC-257 = test: In vitro growth inhibition of compound was determined against UACC-257 cell lines of Melanoma
786-0 = test: In vitro growth inhibition of compound was determined against […] cell lines of Renal cancer
HCC 2998 = test: In vitro growth inhibition of compound was determined against HCC2998 cell lines of colon cancer
CAKI-1 = test: In vitro growth inhibition of compound was determined against CAKI-1 cell lines of Renal cancer
Hs-578T = test: In vitro growth inhibition of compound was determined against Hs 578.T cell lines of Breast cancer
SK-MEL-28 = test: In vitro growth inhibition of compound was determined against SK-MEL-28 cell lines of Melanoma
CCRF-CEM = test: In vitro growth inhibition of compound was determined against CCRF-CEM cell lines of Leukemia
RPMI-8226 = test: In vitro growth inhibition of compound was determined against RPMI-8226 cell lines of Leukemia
MDA-MB-231 = test: In vitro growth inhibition of compound was determined against MDA-MB-231/ATCC cell lines of Breast cancer
MCF7 = test: In vitro growth inhibition of compound was determined against MCF-7 cell lines of Breast cancer
U-251 = test: In vitro growth inhibition of compound was determined against U251 cell lines of CNS cancer
BT-549 = test: In vitro growth inhibition of compound was determined against BT-549 cell lines of Breast cancer
M14 = test: In vitro growth inhibition of compound was determined against M14 cell lines of Melanoma
OVCAR-3 = test: In vitro growth inhibition of compound was determined against OVCAR-3 cell lines of Ovarian cancer
TK-10 = test: In vitro growth inhibition of compound was determined against TK-10 cell lines of Renal cancer
HOP-92 = test: In vitro growth inhibition of compound was determined against HOP-92 cell lines of non-small cell lung cancer
Malme-3M = test: In vitro growth inhibition of compound was determined against MALME-3M cell lines of Melanoma
IGROV-1 = test: In vitro growth inhibition of compound was determined against IGROVI cell lines of Ovarian cancer
KM12 = test: In vitro growth inhibition of compound was determined against KM12 cell lines of colon cancer
NCI-H522 = test: In vitro growth inhibition of compound was determined against NCI-H522 cell lines of non-small cell lung cancer
DU-145 = test: In vitro growth inhibition of compound was determined against DU-145 cell lines of Prostate cancer
UO-31 = test: In vitro growth inhibition of compound was determined against UO-31 cell lines of Renal cancer
OVCAR-8 = test: In vitro growth inhibition of compound was determined against OVCAR-8 cell lines of Ovarian cancer
RXF 393 = test: In vitro growth inhibition of compound was determined against RXF393 cell lines of Renal cancer
NCI-H226 = test: In vitro growth inhibition of compound was determined against NCI-H226 cell lines of non-small cell lung cancer
NCI/ADR-RES = test: In vitro growth inhibition of compound was determined against NCI/ADR-RES cell lines of Breast cancer
LOX IMVI = test: In vitro growth inhibition of compound was determined against LOX IMVI cell lines of Melanoma
COLO 205 = test: In vitro growth inhibition of compound was determined against COLO-205 cell lines of colon cancer
HL-60 = test: In vitro growth inhibition of compound was determined against HL-60(TB) cell lines of Leukemia
SN12C = test: In vitro growth inhibition of compound was determined against SN12C cell lines of Renal cancer
MDA-MB-435 = test: In vitro growth inhibition of compound was determined against MDA-MB-435 cell lines of Breast cancer
SR = test: In vitro growth inhibition of compound was determined against SR cell lines of Leukemia
MDA-N = test: In vitro growth inhibition of compound was determined against MDA-Ncell lines of Breast cancer
SF-295 = test: In vitro growth inhibition of compound was determined against SF-295 cell lines of CNS cancer
SK-MEL-5 = test: In vitro growth inhibition of compound was determined against SK-MEL-5 cell lines of Melanoma
SF-268 = test: In vitro growth inhibition of compound was determined against SF-268 cell lines of CNS cancer
PC-3 = test: In vitro growth inhibition of compound was determined against PC-3 cell lines of Prostate cancer

CCN(CC)C(=S)SS(=O)(=O)c1ccc(N)cc1
GI50 (HCT-116): > 100 µM | GI50 (OVCAR-4): > 100 µM | GI50 (HCT-15): > 100 µM | GI50 (SNB-75): 48 µM | GI50 (K562): 34 µM | GI50 (MOLT-4): 2 µM | GI50 (SF-539): 21 µM | GI50 (ACHN): 61 µM | GI50 (SW-620): > 100 µM | GI50 (HOP-62): 33 µM | GI50 (A549): 7 µM | GI50 (UACC-257): > 100 µM | GI50 (786-0): 3 µM | GI50 (HCC 2998): 8 µM | GI50 (CAKI-1): 22 µM | GI50 (Hs-578T): 83 µM | GI50 (SK-MEL-28): > 100 µM | GI50 (CCRF-CEM): > 100 µM | GI50 (RPMI-8226): 22 µM | GI50 (MDA-MB-231): > 100 µM | GI50 (MCF7): 5 µM | GI50 (U-251): > 100 µM | GI50 (BT-549): > 100 µM | GI50 (M14): 63 µM | GI50 (OVCAR-3): > 100 µM | GI50 (TK-10): > 100 µM | GI50 (HOP-92): 5 µM | GI50 (Malme-3M): 46 µM | GI50 (IGROV-1): 5 µM | GI50 (KM12): 22 µM | GI50 (NCI-H522): 1 µM | GI50 (DU-145): > 100 µM | GI50 (UO-31): 80 µM | GI50 (OVCAR-8): > 100 µM | GI50 (RXF 393): 22 µM | GI50 (NCI-H226): 98 µM | GI50 (NCI/ADR-RES): > 100 µM | GI50 (LOX IMVI): > 100 µM | GI50 (COLO 205): > 100 µM | GI50 (HL-60): > 100 µM | GI50 (SN12C): > 100 µM | GI50 (MDA-MB-435): > 100 µM | GI50 (SR): 3 µM | GI50 (MDA-N): 65 µM | GI50 (SF-295): > 100 µM | GI50 (SK-MEL-5): 13 µM | GI50 (SF-268): > 100 µM | GI50 (PC-3): 90 µM
